Experimental data from article PMC3596309 (2013).

Legend:
[1] = system: Tel22 (DNA, G4) AGGGTTAGGGTTAGGGTTAGGG; assay: ITC; conditions: 20 mM KCl; 10 mM Tris, pH 7.5, 37°C; one set of equivalent sites
[2] = system: wtTel26 (DNA, G4) TTAGGGTTAGGGTTAGGGTTAGGGTT; assay: ITC; conditions: 20 mM KCl; 10 mM Tris, pH 7.5, 25°C; one set of equivalent sites
[3] = system: Tel26 (DNA, G4) AAAGGGTTAGGGTTAGGGTTAGGGAA; assay: ITC; conditions: 20 mM KCl; 10 mM Tris, pH 7.5, 25°C; site 1 of 2; two sequential sites
[4] = system: scT22 (DNA, single strand) GGATGTGAGTGTGAGTGTGAGG; assay: CD titration; conditions: 20 mM KCl; 10 mM Tris, pH 7.5, 25°C; 4 µM DNA; two bases per metal complex; per base
[5] = system: Tel22 (DNA, G4) AGGGTTAGGGTTAGGGTTAGGG; assay: CD melting at 290 nm; conditions: 20 mM KCl; 10 mM Tris, pH 7.5; 4 µM DNA, complex at 2:1 molar ratio
[6] = system: wtTel26 (DNA, G4) TTAGGGTTAGGGTTAGGGTTAGGGTT; assay: CD melting at 290 nm; conditions: 20 mM KCl; 10 mM Tris, pH 7.5; 4 µM DNA, complex at 2:1 molar ratio
[7] = system: Tel26 (DNA, G4) AAAGGGTTAGGGTTAGGGTTAGGGAA; assay: CD melting at 290 nm; conditions: 20 mM KCl; 10 mM Tris, pH 7.5; 4 µM DNA, complex at 2:1 molar ratio

CN(C)CCNCc1ccnc2c1ccc1cccnc12.CN(C)CCNCc1ccnc2c1ccc1cccnc12.[Ni+2]
Ka [1]: 35.1 ± 0.6 × 10^5 M^-1
Ka [2]: 4.7 ± 1.7 × 10^5 M^-1
Ka [3]: 8.7 ± 3.3 × 10^5 M^-1
Ka [4]: 270000 M⁻¹
ΔTm [5]: 10.4 °C
ΔTm [6]: 15.2 °C
ΔTm [7]: 13.8 °C
